# Measurements published in patent publication US11180510B2, “Xanthine derivatives and uses thereof as inhibitors of bromodomains of BET proteins” (Centre national de la recherche scientifique, priority 2017, dated 2021).
# Where two headings read alike, the source gives them in different places.
# How the values were obtained:
# Brd2(BD1) = molecular target: T1, Brd2(BD1) (Homo sapiens, UniProt P25440); experiment: HTRF BET selectivity profile, Brd2(BD1); assay type: binding; conditions: for IC50: read-out: Brd2(BD1) IC50; for Ratio 2-1 vs 2-2: selectivity Brd2(BD1) vs Brd2(BD2), HTRF IC50
# T1 construct: GST tagged bromodomain proteins were purchased from BPS Bioscience; purchased BPS Bioscience
# T1 sequence (P25440 74-180 limits assumed): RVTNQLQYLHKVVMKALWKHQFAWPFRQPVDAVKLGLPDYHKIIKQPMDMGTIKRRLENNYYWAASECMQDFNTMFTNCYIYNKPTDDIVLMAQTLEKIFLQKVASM
# Description: (§1) HTRF assays were performed in white 384 Well Small Volume™ HiBase Polystyrene Microplates (Greiner) with a total working volume of 20 μL. Compounds were dispensed, with 100 nL per well (0.5% final DMSO), from a concentration stock of 10 mM in 100% DMSO and with serial DMSO dilutions, using an Echo® 550 robot from the Access Labcyte platform (Labcyte) and based on the transfer of liquid by acoustic wave. Then, 19.5 μL of buffer is added, using a Multidrop Combi (Thermo Fisher Scientific). […] All HTRF reagents (donor and acceptor) were purchased from CisBio Bioassays and reconstituted according to the supplier protocols. The peptide was purchased from Genic Bio Synthetic. The BRD4(1) protein was produced and purified in the laboratory.
# (§2) Percentage of inhibition was calculated using the following equation: % inhibition=[(compound signal)−(min signal)]/[(max signal)−(min signal)]*100, where ‘max signal’ is the signal ratio with the compound vehicle alone (DMSO) and ‘min signal’ the signal ratio without peptide.
# (§3) Selectivity profiles of bromodomain inhibitors were performed as described in HTRF screen section. […] HTRF detection reagents (EPIgeneous™ Binding Domain kits) were purchased from Cisbio Bioassays and used according to supplier's protocol. GST tagged bromodomain proteins were purchased from BPS Bioscience and histone peptide from Genic Bio Synthetic.
# Brdt(BD1) = molecular target: T2, Brdt(BD1) (Homo sapiens, UniProt Q58F21); experiment: HTRF BET selectivity profile, Brdt(BD1); assay type: binding
# T2 construct: GST tagged bromodomain proteins were purchased from BPS Bioscience; purchased BPS Bioscience
# Description: (§4) HTRF assays were performed in white 384 Well Small Volume™ HiBase Polystyrene Microplates (Greiner) with a total working volume of 20 μL. Compounds were dispensed, with 100 nL per well (0.5% final DMSO), from a concentration stock of 10 mM in 100% DMSO and with serial DMSO dilutions, using an Echo® 550 robot from the Access Labcyte platform (Labcyte) and based on the transfer of liquid by acoustic wave. Then, 19.5 μL of buffer is added, using a Multidrop Combi (Thermo Fisher Scientific). Finally, for each assay, 200 nL of master mix (protein+donor+acceptor) and 200 nL of peptide Is added in the assay wells according to the final concentration and buffer described in Table 3, using the Echo® 550 robot (Labcyte). The IC50 measurements were performed in triplicates (Table 2 and 3). All HTRF reagents (donor and acceptor) were purchased from CisBio Bioassays and reconstituted according to the supplier protocols. The peptide was purchased from Genic Bio Synthetic. The BRD4(1) protein was produced and purified in the laboratory. HTRF signals were measured, after a final incubation (3 h or 6 h or overnight at room temperature or 4° C., according to the bromodomain), using a PHERAstar FS (BMG Labtech) with an excitation filter at 337 nm and fluorescence wavelength measurement at 620 and 665 nm, an integration delay of 60 μs and an integration time of 500 μs. Results were analyzed with a two-wavelengths signal ratio: [intensity (665 nm)/intensity (620 nm)]*104.
# as §2, §3
# Brd4(BD2) = molecular target: T3, Brd4(BD2) (Homo sapiens, UniProt O60885); experiment: HTRF BET selectivity profile, Brd4(BD2); assay type: binding
# T3 construct: GST tagged bromodomain proteins were purchased from BPS Bioscience; purchased BPS Bioscience
# Description: as §4, §2, §3
# Brd3(BD2) = molecular target: T4, Brd3(BD2) (Homo sapiens, UniProt Q15059); experiment: HTRF BET selectivity profile, Brd3(BD2); assay type: binding
# T4 construct: GST tagged bromodomain proteins were purchased from BPS Bioscience; purchased BPS Bioscience
# T4 sequence (Q15059 306-415 limits assumed): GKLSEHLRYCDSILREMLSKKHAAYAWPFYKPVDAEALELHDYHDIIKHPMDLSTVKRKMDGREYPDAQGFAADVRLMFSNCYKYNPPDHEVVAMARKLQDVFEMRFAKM
# Description: as §4, §2, §3
# Brd2(BD2) = molecular target: T5, Brd2(BD2) (Homo sapiens, UniProt P25440); experiment: HTRF BET selectivity profile, Brd2(BD2); assay type: binding; conditions: read-out: Brd2(BD2) IC50
# T5 construct: GST tagged bromodomain proteins were purchased from BPS Bioscience; purchased BPS Bioscience
# T5 sequence (P25440 344-453 limits assumed): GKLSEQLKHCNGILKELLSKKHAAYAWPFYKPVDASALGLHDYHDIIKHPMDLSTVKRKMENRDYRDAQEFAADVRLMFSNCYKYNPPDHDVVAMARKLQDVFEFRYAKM
# Description: as §1, §2, §3
# BRD4(BD1) [1] = molecular target: T6, BRD4(BD1) (Homo sapiens, UniProt O60885); experiment: Isothermal Titration Calorimetry; assay type: binding; conditions: ITC; read-out: Binding affinity (Kd) to BRD4(1) by Isothermal Titration Calorimetry
# Description: FIG. 1. Isothermal Titration Calorimetry (ITC) of 43c. Thermogram (top) and non-linear least squares fit model of the integrated data (bottom) at 15° C. of Brd4 (BD1) […] as a function of the molar ratio of ligand to the protein.
# ITC was used to evaluate the thermodynamics parameters of the binding between BRD4 (BD1) and the selected compounds. Titrations were carried out on a MicroCal ITC200 microcalorimeter (GE Healthcare, Piscataway, N.J.). Each experiment was designed using a titrant concentration (protein in the syringe generally between 100 and 400 μM) set 10 to 15 times the analyte concentration (compound in the cell generally between 10 and 40 μM) and using 13 injections at 25° C. A first small injection (generally 0.2 μL) was included in the titration protocol in order to remove air bubbles trapped in the syringe prior titration. Raw data were scaled after setting the zero to the titration saturation heat value. Integrated raw ITC data were fitted to a one site non-linear least squares fit model using the MicroCal Origin plugin as implemented in Origin 7 (Origin Lab). Finally, ΔG and TΔS values were calculated from the fitted ΔH and KA values using the equations ΔG=−R.T.inKA and ΔG=ΔH−TΔS.
# Jurkat cells = experiment: Cell Titer-Glo cell viability assay, Jurkat; assay type: cell-based; conditions: Homo sapiens, 72 h, mean of three experiments, NA = IC50 > maximal concentration used
# Description: (§5) The human leukemia cell line Jurkat (ATCC® TIB-152) and Molm14 was maintained in RPMI-1640 medium or MEMα, respectively and supplemented both with 10% FBS at 37° C. and 5% CO2.
# (§6) In antiproliferative assays, compounds were assayed for their growth inhibiting activity towards the described cancer cell lines using the Cell Titer-Glo Luminescent Cell Viability Assay as described by the manufacturer (Promega Corporation). Briefly, 10.000 cells were plated onto 96 well-plates (white with clear bottom (3610, Corning Costar)) in 90 μL media per well immediately before assay. 10 μL of compounds were added at different concentrations (ranging from 50 μM to 6 nM) to each well and cell cultures were incubated 37° C. during 72 h. Vehicle (DMSO) was used as negative control, JQ1 (a pan-BET inhibitor) was used as positive control and all compounds were tested in constant percentage of DMSO (1%). After addition of 50 μL Cell Titer-GLO, shaking 2 minutes and incubating at room temperature 10 minutes, the Luminescence was measured using a Centro luminometer LB960 (Berthold). Dose-response curves were generated and effective dose 50 values (EC50) were calculated using non-linear regression analysis (Graph Pad Prism).
# 61 bromodomains = experiment: Thermal shift assay selectivity profile on 61 bromodomains; assay type: binding; conditions: compound at 25 μM
# Description: FIG. 3. Thermal Shift Assay (TSA) of 43c. The evaluation was performed on 61 bromodomains. A cut-off at +/−3.5° C. was set.
# TSA “Bromoscan” assays (Reaction Biology) were performed in 384 well RT-PCR plate (BioRad) with a total working volume of 15 μL. The “BromoMelT™, containing the 61 GST- or His-tagged-bromodomains, SYPRO® Orange and a mix compounds as control, was purchased from Reaction Biology. For each point, 3 μL of protein (1×) and 12 μL master mix (buffer+SYPRO® Orange+compound at 25 μM or control mix compounds or DMSO (0.5%)) were mixed in plate. The plate was placed in a CFX384 RTQPC (BioRad), and heated 10 seconds at 25° C., then the temperature was increased from 25° C. to 90° C., by increment of 0.5° C. every 30 seconds. The fluorescence was recorded using FRET filters.
# BRD4(BD1) [2] = molecular target: T6, BRD4(BD1); experiment: HTRF assay, BRD4(BD1)/histone peptide interaction; assay type: binding; design: made in house; conditions: for IC50: HTRF; for Ratio 4-1 vs 4-2: selectivity Brd4(BD1) vs Brd4(BD2), HTRF IC50
# Brd3(BD1) = Brd3(BD1) (Homo sapiens, UniProt Q15059); experiment: HTRF BET selectivity profile, Brd3(BD1); assay type: binding; design: GST tagged bromodomain proteins were purchased from BPS Bioscience; purchased BPS Bioscience; conditions: for Ratio 3-1 vs 3-2: selectivity Brd3(BD1) vs Brd3(BD2), HTRF IC50
# Chain of Brd3(BD1) (Q15059 34-140 limits assumed): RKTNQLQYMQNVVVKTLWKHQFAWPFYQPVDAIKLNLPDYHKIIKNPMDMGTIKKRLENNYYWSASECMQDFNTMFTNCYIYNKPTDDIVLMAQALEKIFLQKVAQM
# Description: as §1, §2, §3
# ATAD2 = molecular target: T7, ATAD2 (Homo sapiens, UniProt Q6PL18); experiment: HTRF selectivity profile, ATAD2 (non-BET bromodomain control); assay type: binding
# T7 construct: GST tagged bromodomain proteins were purchased from BPS Bioscience; purchased BPS Bioscience
# T7 sequence (Q6PL18 980-1092 limits assumed): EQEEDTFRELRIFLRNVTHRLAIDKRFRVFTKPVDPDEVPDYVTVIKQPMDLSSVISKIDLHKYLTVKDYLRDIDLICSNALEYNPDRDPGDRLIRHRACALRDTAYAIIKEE
# Description: HTRF assays were performed in white 384 Well Small Volume™ HiBase Polystyrene Microplates (Greiner) with a total working volume of 20 μL. Compounds were dispensed, with 100 nL per well (0.5% final DMSO), from a concentration stock of 10 mM in 100% DMSO and with serial DMSO dilutions, using an Echo® 550 robot from the Access Labcyte platform (Labcyte) and based on the transfer of liquid by acoustic wave. Then, 19.5 μL of buffer is added, using a Multidrop Combi (Thermo Fisher Scientific). […] HTRF signals were measured, after a final incubation (3 h or 6 h or overnight at room temperature or 4° C., according to the bromodomain), using a PHERAstar FS (BMG Labtech) with an excitation filter at 337 nm and fluorescence wavelength measurement at 620 and 665 nm, an integration delay of 60 μs and an integration time of 500 μs. Results were analyzed with a two-wavelengths signal ratio: [intensity (665 nm)/intensity (620 nm)]*104.
# Percentage of inhibition was calculated using the following equation: % inhibition=[(compound signal)−(min signal)]/[(max signal)−(min signal)]*100, where ‘max signal’ is the signal ratio with the compound vehicle alone (DMSO) and ‘min signal’ the signal ratio without peptide. […]
# Molm14 cells = experiment: Cell Titer-Glo cell viability assay, Molm14; assay type: cell-based; conditions: Homo sapiens, MOLM-14, 72 h, mean of three experiments, NA = IC50 > maximal concentration used
# Description: as §5, §6
# c-Myc = conditions: known inhibitors, background statement; cited from earlier work
# acute leukemia = conditions: phase I study; cited from earlier work
# [3] = system: BD2 domain of BRD2 and BRD3; conditions: cited from earlier work
# [4] = mean of three experiments, NA = IC50 > 50 μM, read-out: Brd4(8D1) IC50
# [5] = triplicates, NA = IC50 > maximal concentration of compound used
Compound,IC50 (Brd2(BD1)),Ratio 2-1 vs 2-2 (Brd2(BD1)),IC50 (Brdt(BD1)),IC50 (Brd4(BD2)),IC50 (Brd3(BD2)),IC50 (Brd2(BD2)),Kd (BRD4(BD1) [1]),IC50 (Jurkat cells),Bromodomain selectivity profile by thermal shift assay (61 bromodomains),IC50 (BRD4(BD1) [2]; [4]),"IC50 (BRD4(BD1) [2]; read-out: IC50 on BRD4(BD1) activity (concentration that inhibits protein-protein interaction by 50%), triplicates, NA = IC50 > maximal concentration of compound used)",Ratio 4-1 vs 4-2 (BRD4(BD1) [2]),IC50 (Brd3(BD1)),Ratio 3-1 vs 3-2 (Brd3(BD1)),IC50 (ATAD2),IC50 (Molm14 cells),IC50 (BRD4(BD1) [2]; [5]),effect on c-Myc expression (c-Myc),clinical response in acute leukemia (acute leukemia),bromodomain binding preference [3]
CCn1cnc2c1c(=O)[nH]c(=O)n2Cc1ccc(CNS(=O)(=O)c2ccc3c(c2)CCCC(=O)N3)cc1 [Compound 27c],336 nM,5,356 nM,2780 nM,3470 nM,1610 nM,129 nM,39500 nM,pan-BET selective,283 nM,283 nM,10,456 nM,8,,,,,,
CCn1cnc2c1c(=O)[nH]c(=O)n2Cc1ccc(CNS(=O)(=O)c2ccc(-c3ccccc3)cc2)cc1 [Compound 29b],3310 nM,5,19700 nM,17700 nM,13500 nM,16000 nM,,26500 nM,,450 nM,,39,897 nM,15,24600 nM,10600 nM,450 nM,,,
"CCn1cnc2c1c(=O)[nH]c(=O)n2Cc1ccc(CNS(=O)(=O)c2ccc(Oc3ccccc3)cc2)cc1 [Compound 30c, N-(4-((7-ethyl-2,6-dioxo-1,2,6,7-tetrahydro-3H-purin-3-yl)methyl)benzyl)-4-phenoxybenzenesulfonamide]",868 nM,3,1180 nM,4590 nM,3160 nM,2490 nM,641 nM,10300 nM,BRD4(1) and BRD3(1) selective,510 nM,,9,633 nM,5,,9200 nM,510 nM,,,
CCn1cnc2c1c(=O)[nH]c(=O)n2Cc1ccc(CNS(=O)(=O)c2ccc(OCc3ccccc3)cc2)cc1 [Compound 31a],1460 nM,9,8510 nM,9710 nM,13500 nM,12800 nM,433 nM,19400 nM,not pan-BET selective,355 nM,,27,596 nM,23,,1800 nM,355 nM,,,
COc1cc2c(cc1-c1c(C)noc1C)ncc1[nH]c(=O)n([C@H](C)c3ccccn3)c12 [I-BET151],,,,,,,,,,,,,,,,,,strong downregulation of c-Myc,,
Cc1sc2c(c1C)C(c1ccc(Cl)cc1)=N[C@@H](CC(=O)OC(C)(C)C)c1nnc(C)n1-2 [JQ1],,,,,,,,,,,,,,,,,,strong downregulation of c-Myc,,
"Cc1sc2c(c1C)C(c1ccc(Cl)cc1)=N[C@@H](CC(=O)Nc1ccc(O)cc1)c1nnc(C)n1-2 [OTX015, (6S)-4-(4-chlorophenyl)-N-(4-hydroxyphenyl)-2,3,9-trimethyl-6H-thieno[3,2-f][1,2,4]triazolo[4,3-a][1,4]diazepine-6-acetamide]",,,,,,,,,,,,,,,,,,,"induced remissions, including complete remission in two patients with refractory disease",
"COc1cc(OC)c2c(=O)[nH]c(-c3cc(C)c(OCCO)c(C)c3)nc2c1 [RVX-208, 2-[4-(2-hydroxyethoxy)-3,5-dimethylphenyl]-5,7-dimethoxy-4(3H)-quinazolinone]",,,,,,,,,,,,,,,,,,no significant effect,,binds preferentially to the BD2 domain of BRD2 and BRD3
